Results reported in PMC6943714, “Rigorous Computational and Experimental Investigations on MDM2/MDMX-Targeted Linear and Macrocyclic Peptides” (Molecules, 2019).
Where a SMILES comes first, the peptide text is derived from it. Bridges are numbered along the chain shown (N, C = ends). [ ]: non-standard residue; d: D form. R8 = C=CCCCCCC[C@@](C)(N)C(=O)O; Cba = N[C@@H](CC1CCC1)C(=O)O; S5 = C=CCCC[C@](C)(N)C(=O)O

How the values were obtained:
MDMX = biological target: T1, MDMX (Homo sapiens, UniProt O15151); assay: Experimental MDMX binding (Table 4)
T1 sequence (O15151 1-490): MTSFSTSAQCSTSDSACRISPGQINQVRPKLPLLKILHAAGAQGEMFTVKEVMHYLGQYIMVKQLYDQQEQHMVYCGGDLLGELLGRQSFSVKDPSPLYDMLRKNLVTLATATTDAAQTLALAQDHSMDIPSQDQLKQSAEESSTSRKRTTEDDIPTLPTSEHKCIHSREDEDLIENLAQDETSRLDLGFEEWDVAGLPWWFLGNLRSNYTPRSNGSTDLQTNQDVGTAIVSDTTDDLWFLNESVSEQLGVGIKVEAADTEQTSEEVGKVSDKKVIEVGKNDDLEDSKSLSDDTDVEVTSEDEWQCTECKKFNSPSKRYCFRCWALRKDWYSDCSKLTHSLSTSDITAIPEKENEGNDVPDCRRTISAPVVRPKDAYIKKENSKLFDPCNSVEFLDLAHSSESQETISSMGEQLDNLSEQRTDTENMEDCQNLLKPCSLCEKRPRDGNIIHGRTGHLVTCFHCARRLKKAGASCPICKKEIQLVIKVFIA
From the text: Table 4 Prospective Testing Data. | column: Experimental MDMX / Kd (nM); Experimental MDMX / ΔΔG (kcal)

MDM2 (1-125) = biological target: T2, MDM2 (1-125) (Homo sapiens, UniProt Q00987); assay: Mdm2 competitive fluorescence anisotropy assay; format: binding; conditions: read-out: Experimental MDM2 Kd
T2 construct: Purified MDM2 (1-125) protein was titrated against
Method: Mdm2 Competitive Fluorescence Anisotropy Assay and Kd Determination Purified MDM2 (1-125) protein was titrated against 50 nM carboxyfluorescein (FAM)-labeled 12/1 peptide (FAM-[…]-NH2). […] (4) r=r0+(rb−r0)((Kd+[L]t+[P]t)−(Kd+[L]t+[P]t)^2−4[L]t[P]t/2[L]t)
[P] is the protein concentration (MDM2), [L] is the labeled peptide concentration, r is the anisotropy measured, ro is the anisotropy of the free peptide, rb is the anisotropy of the MDM2–FAM-labeled peptide complex, Kd is the dissociation constant, [L]t is the total FAM-labeled peptide concentration, and [P]t is the total MDM2 concentration.
Apparent Kd values were determined for a variety of molecules via competitive fluorescence anisotropy experiments. Titrations were carried out with the concentration of MDM2 held constant at 250 nM and the labeled peptide at 50 nM. The competing molecules were then titrated against the complex of the FAM-labeled peptide and protein. Apparent Kd values were determined by fitting the experimental data to the equations shown below: [58, 59]. […]
[L]st and [L]t denote labeled ligand and total unlabeled ligand input concentrations, respectively. […] Kd1 is the apparent Kd for the labeled peptide used in the respective experiment, which has been experimentally determined as described in the previous paragraph. […] Readings were carried out with an Envision Multilabel Reader (PerkinElmer). […]

T2 sequence (Q00987 1-125): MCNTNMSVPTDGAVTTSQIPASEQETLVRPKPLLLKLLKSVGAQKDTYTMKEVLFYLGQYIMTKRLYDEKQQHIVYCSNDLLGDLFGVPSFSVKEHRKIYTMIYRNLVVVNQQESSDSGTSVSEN

| Kd (MDMX) | Kd (MDM2 (1-125)) | Structure (SMILES) |
| --- | --- | --- |
| 12.5 nM | – | CC(=O)N[C@@H](CC(C)C)C(=O)N[C@H](C(=O)N[C@@H](Cc1ccccc1)C(=O)N[C@]1(C)CCCCCCC=CCCC[C@@](C)(C(=O)N[C@@H](CO)C(=O)N[C@@H](C)C(=O)N[C@@H](C)C(N)=O)NC(=O)[C@H](CC2CCC2)NC(=O)[C@H](CC(C)C)NC(=O)[C@H](CCC(N)=O)NC(=O)[C@H](Cc2c[nH]c3ccccc23)NC(=O)[C@H](Cc2ccc(O)cc2)NC(=O)[C@H](CCC(=O)O)NC1=O)[C@@H](C)O [WT] |
| 130 nM | 51.5 nM | CC(=O)N[C@@H](CC(C)C)C(=O)N[C@H](C(=O)N[C@@H](Cc1ccccc1)C(=O)N[C@]1(C)CCCCCCC=CCCC[C@@](C)(C(=O)N[C@@H](CO)C(=O)N[C@@H](C)C(=O)N[C@@H](C)C(N)=O)NC(=O)[C@H](CC2CCC2)NC(=O)[C@H](CC(C)C)NC(=O)[C@H](CCC(N)=O)NC(=O)[C@H](Cc2c[nH]c3ccccc23)NC(=O)[C@H](C)NC(=O)[C@H](CCC(=O)O)NC1=O)[C@@H](C)O [Y6A] (Ac-LTF[R8]EAWQL[Cba][S5]SAA-NH2; staple 4-11) |
| 921 nM | 365 nM | CC(=O)N[C@@H](CC(C)C)C(=O)N[C@H](C(=O)N[C@@H](Cc1ccccc1)C(=O)N[C@]1(C)CCCCCCC=CCCC[C@@](C)(C(=O)N[C@@H](CO)C(=O)N[C@@H](C)C(=O)N[C@@H](C)C(N)=O)NC(=O)[C@H](CC2CCC2)NC(=O)[C@H](CC(C)C)NC(=O)[C@H](CCC(N)=O)NC(=O)[C@H](Cc2c[nH]c3ccccc23)NC(=O)[C@@H](Cc2ccc(O)cc2)NC(=O)[C@H](CCC(=O)O)NC1=O)[C@@H](C)O [Y6dY] |
